The values below come from publication PMC9501280, “Anti-Inflammatory Activity of Soluble Epoxide Hydrolase Inhibitors Based on Selenoureas Bearing an Adamantane Moiety” (International Journal of Molecular Sciences, 2022).

Data set [1] has as its system LPS-stimulated C57bl/6j peritoneal macrophages. Briefly: Suppression of NO synthesis in LPS-stimulated peritoneal macrophages (Griess). The format is cell-based, mice. The following applies: for IC50: Mus musculus, Peritoneal macrophage, read-out: NO Synthesis, IC50 ± SE. The source says: For screening designed compounds according to their probable ability to limit inflammation, we used a test on the inhibition of LPS-induced activation of primary murine macrophages. The most prominent anti-inflammatory activity, defined as the suppression of nitric oxide synthesis by LPS-stimulated macrophages, was evident for compounds 4a and 5b. At the same time, for 4a, the cytotoxic concentration was 4.7–18.4 times higher than the effective anti-inflammatory concentration. […] According to the data obtained, there is no direct correlation between the efficiency of the inhibition of sEH and NO synthesis, which requires further studies of the anti-inflammatory activity of the investigated compounds.
(§1) Peritoneal macrophages (PM) were isolated from the peritoneal exudate of 30 male C57bl/6j mice. To accumulate PM, 1 mL of 3% peptone solution was injected intraperitoneally. After 3 days, the mice were euthanized by cervical dislocation. Cells of peritoneal exudate were obtained by aseptic washing of the abdominal cavity with 5 mL of sterile Hanks’s solution (+4–6 °C) without calcium and magnesium ions. The total number and viability of cells were assessed in a Goryaev counting chamber (Russia) with a 0.4% trypan blue staining (Sigma-Aldrich, St. Louis, MO, USA). The cell concentration was adjusted to 1.0 × 10^6 cells/mL in DMEM (Gibco) supplemented with 2 mM L-glutamine (Gibco), 10% heat-inactivated fetal bovine serum (BioClot, Passau, Germany), 100 U/mL penicillin and […] streptomycin (Gibco) and plated 200 μL/well in 96-well transparent plates (SPL Life Sciences Co., Ltd., Pochon, Korea). After 2 h at 37 °C in a humidified atmosphere with 5% CO2, wells were washed to remove nonadherent cells. After 24 h of incubation, 20 μL of the supernatants were substituted with 20 μL of solutions of the test compounds, followed with E. coli O127:B8 LPS (100 ng/mL final concentration) after 30 min. Experiments were run in 3 independent replicates.
The accumulation of nitrite anion (a stable decomposition product of NO produced by iNOS) in the supernatants was determined using a standard Griess reagent. Briefly, 50 μL of supernatants collected 22 h after incubation of PM with the test and control compounds were mixed with 50 μL of 1% sulfonamide in 2.5% H3PO4 and 50 μL of 0.1% N-(1-naphthyl) ethylenediamine in 2.5% H3PO4. After incubation at 23 °C for 10 min. in an orbital shaker, the optical density was determined at a wavelength of 550 nm with a microplate reader Infinite M200 PRO (Tecan, Austria).

A short description of data set [2]: MTT cytotoxicity on peritoneal macrophages. The format is cell-based, mice. To be noted: male, C57bl/6j, mouse, 24 h incubation, read-out: MTT CC50 ± SE. As to the method:
as §1
(§2) The activity of lactate dehydrogenase (LDH) in a cell culture medium served as a marker of membrane permeability and cell death. Aliquots of supernatants were taken after 24 h of inoculation with test compounds, mixed with 250 μL of […] NADH solution in 54 mM phosphate-buffered saline (pH 7.5). Then, 25 μL of a 6.48 mM pyruvate solution was added to the mixture. The optical density was followed at a wavelength of 340 nm for 20 min. The MTT test was performed 24 h after the incubation of cells with the tested compounds. Briefly, 20 μL of MTT solution was added to each well and incubated at 37 °C in a humidified atmosphere containing 5% CO2 for 4 h. The culture medium was aspirated, the cells were lysed and formazan crystals dissolved in 150 μL of DMSO. The plates were shaken at room temperature for 10 min, and the optical density was measured in a microplate reader Infinite M200 PRO (Tecan Group Ltd., Männedorf, Switzerland) at a wavelength of 565 nm.

For data set [3], the system named is C57bl/6j peritoneal macrophages. Description: MTT cytotoxicity on peritoneal macrophages. The class given is cell-based, mice. To be noted: Mus musculus, Peritoneal macrophage, read-out: EC50 ± SEM, C57bl/6j. Here is the method:
as §1, §2

The target of another data set is T1, human recombinant sEH (Homo sapiens, UniProt P34913).
T1 sequence (P34913 1-555): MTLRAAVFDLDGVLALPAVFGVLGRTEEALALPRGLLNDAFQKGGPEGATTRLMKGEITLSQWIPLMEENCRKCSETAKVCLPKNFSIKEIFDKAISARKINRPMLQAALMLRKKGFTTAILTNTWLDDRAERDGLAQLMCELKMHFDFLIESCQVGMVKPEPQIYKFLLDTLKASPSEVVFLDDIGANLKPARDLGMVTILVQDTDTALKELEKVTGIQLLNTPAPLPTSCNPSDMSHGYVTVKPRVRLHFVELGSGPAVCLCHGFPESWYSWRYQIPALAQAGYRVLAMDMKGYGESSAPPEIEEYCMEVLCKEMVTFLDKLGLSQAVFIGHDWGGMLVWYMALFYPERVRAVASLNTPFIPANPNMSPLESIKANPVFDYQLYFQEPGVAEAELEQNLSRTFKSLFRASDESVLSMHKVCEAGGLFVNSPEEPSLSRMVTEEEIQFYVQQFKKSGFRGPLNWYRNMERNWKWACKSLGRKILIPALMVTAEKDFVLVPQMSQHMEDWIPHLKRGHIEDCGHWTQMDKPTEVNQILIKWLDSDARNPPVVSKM
Description: Human sEH inhibition, kinetic fluorescent assay. The class given is biochemical. To be noted: kinetic fluorescent assay; means of three separate experiments; read-out: Human sEH IC50.

A short description of data set [4]: LDH release cytotoxicity on peritoneal macrophages. The class given is cell-based, mice. To be noted: male, C57bl/6j, mouse, 24 h incubation, read-out: LDH CC50 ± SE. Here is the method: as §1
as §2, with “Briefly, 20 μL of MTT solution was added to each well and incubated at 37 °C in a humidified atmosphere containing 5% CO2 for 4 h. The culture medium was aspirated, the cells were lysed and formazan crystals dissolved in 150 μL of DMSO.” left out
(In general: Release of lactate dehydrogenase indicates damage to the cell membrane.)

Data set [5] relates to human fibroblast cells (MRC-5). Description: MTT test with human fibroblast cells. The format is cell-based. To be noted: read-out: EC50 ± SEM, MRC-5. Here is the method:
The studied compounds were added in concentrations of 1, 3, 6, 12, 25, 50, and 100 μM.
Human fibroblast cells (MRC-5) were used in this study. The cells were cultured in the DMEM medium that contained 10% embryonic calf serum in a CO2 incubator at 37 °C. The tested compounds were dissolved in DMSO and added to the cellular culture at the required concentrations. Three wells were used for each concentration. The cells that were incubated without the compounds were used as a negative control, and doxorubicin was used as the positive one. Cells were placed on 96-well microliter plates and cultivated at 37 °C in 5% CO2/95% air for 72 h. The cell viability was assessed through an MTT (3-(4,5-dimethylthiazol-2-yl)-2,5-phenyl-2H-tetrazolium bromide) conversion assay. A total of 1% MTT was added to each well. Three hours later, isopropanol was added and mixed for 15 min. Optical density (OD) of the samples was measured on a ThermoFischer multi-well spectrophotometer at a wavelength of 450 nm. […] The experimental results are given as average values obtained from three independently conducted experiments.
(In general: Formazan colour is commonly taken as a measure of viable cells.)

Another data set has as its system E. coli PQ37. Description: SOS chromotest. The format is cell-based. To be noted: induction factor. Here is the method:
For the final safety check of selenoureas, the SOS chromotest was carried out. […] The results are presented as the mean value of induction factor I (c) ± SEM based on the results of three independent experiments, each of which included three replicates (Table 5).
The SOS chromotest was carried out according to the standard procedure, with recommended additions. The E. coli PQ37 strain was provided by P. Quillardet (Paris, France). The test compounds were dissolved in dimethyl sulfoxide (DMSO) (also used as a negative control) and added to the bacterial medium in the required concentrations; the concentration of the injected solutions was 1% by volume.

Data set [6] can be described thus: Solubility in sodium phosphate buffer. The class given is physicochemical. The following applies: aqueous buffer, kinetic from dmso stock; sodium phosphate buffer (pH 7.4, 0.1 M) containing 1% DMSO. Here is the method:
To our knowledge, no systematic studies of selenoureas as sEH inhibitors have been performed previously. The potency of the compounds was determined against the human recombinant sEH and their solubility assessed in phosphate-buffered saline (Table 1).

In brackets after ≈: the same amount, converted by molar mass. Like-named read-outs stand apart in the source and are kept apart here. Some results are limits rather than exact numbers.

As usually defined, the melting point is the temperature, or range, at which the solid turns liquid. The IC50 is the point on the concentration scale where inhibition reaches its midpoint. For orientation: CC50 means the concentration that lowers cell viability or growth by half. Broadly, the solubility is the concentration that dissolves in the medium under given conditions. Low values mean little dissolved substance, high ones much dissolved substance.

Compound `[Se]=C(NCc1ccccc1)NCC12CC3CC(CC(C3)C1)C2` [5b, 1-[(Adamantan-1-yl)methyl]-3-benzylselenourea] yielded a melting point of 158 to 159 °C. Further, the “cytotoxic concentration versus effective anti-inflammatory concentration” value in data set [1] (CC50 (MTT, LDH) over NO synthesis IC50, peritoneal macrophages) is “comparable”. Besides, in data set [1] (22 h), the IC50 came out at 27.8 ± 5.2 µM. Further, the CC50 at 24 h in data set [2] was 17.7 ± 5.7 µM. In addition, in data set [3], the EC50 was 17.7 ± 5.66 µM. The IC50 at human recombinant sEH worked out at 0.2 µM. The CC50 at 24 h in [4] was determined as 20.4 ± 5.3 µM. In data set [5] (MRC5, 72 h), the EC50 worked out at 3.04 ± 0.66 µM. In addition, in the data set on E. coli PQ37 (compound 10 µM), the “I(c) ± SE, 10 µM” value is on record as 1.12 ± 0.18. Further, the “I(c) ± SE, 25 µM” value in the data set with E. coli PQ37 (compound 25 µM) amounted to 0.95 ± 0.13. In addition, the “I(c) ± SE, 50 µM” value with E. coli PQ37 (compound 50 µM) was determined as 0.99 ± 0.11. Further, the “I(c) ± SE, 100 µM” value in the data set with E. coli PQ37 (compound 100 µM) is recorded as 0.97 ± 0.08.

Take `CC(NC(=[Se])NCc1ccccc1)C12CC3CC(CC(C3)C1)C2` (centres unmarked) [5c, 1-[1-(Adamantan-1-yl)ethyl]-3-benzylselenourea]: the melting point lay in the range of 154 to 155 °C. On human recombinant sEH, the IC50 is 0.274 µM. Further, the solubility in data set [6] turned out to be 110 ± 20 µM (≈ 41.3 µg/mL).

As for `[Se]=C(NCCC12CC3CC(CC(C3)C1)C2)NCc1ccccc1` [5d, 1-[2-(Adamantan-1-yl)ethyl]-3-benzylselenourea], the melting point was in the range of 142 to 143 °C. At human recombinant sEH, the IC50 amounted to 0.0343 µM. This compound displayed a solubility in data set [6] of 140 ± 20 µM (≈ 52.6 µg/mL).

`[Se]=C(NCc1ccccc1)Nc1ccc(C23CC4CC(CC(C4)C2)C3)cc1` [5e, 1-[4-(Adamantan-1-yl)phenyl]-3-benzylselenourea] gave a melting point of 147 to 148 °C. For the same compound, the IC50 on human recombinant sEH was found to be 0.204 µM. In addition, the solubility in data set [6] came out at 200 ± 20 µM (≈ 84.7 µg/mL).

For `CC12CC3CC(C)(C1)CC(NC(=[Se])NCc1ccccc1)(C3)C2` [5f, 1-(3,5-Dimethyladamantan-1-yl)-3-benzylselenourea], the melting point lay in the range of 112 to 113 °C. For the same compound, at human recombinant sEH, the half-maximal inhibitory concentration (IC50) amounted to 0.0485 µM.

In turn, `[Se]=C(NCc1ccccc1)NC1C2CC3CC(C2)CC1C3` (centres unmarked) [5g, 1-(Adamantan-2-yl)-3-benzylselenourea] registered a melting point of 139 to 140 °C. Further, the half-inhibitory concentration (IC50) on human recombinant sEH was found to be 0.12 µM. The compound further gave a solubility in data set [6] of 110 ± 10 µM (≈ 38.2 µg/mL).

`C[C@@H]1C[C@H]2[C@@H]3CCC4=CC(=O)C=C[C@]4(C)[C@@]3(F)[C@@H](O)C[C@]2(C)[C@@]1(O)C(=O)CO` [Dexamethasone, reference compound]: the IC50 in data set [1] (LPS 100 ng/mL, supernatants after 22 h) was determined as 0.003 ± 0.001 µM. Besides, the cytotoxic concentration (CC50) at 24 h in [2] (primary peritoneal macrophages) and in data set [4] (primary peritoneal macrophages) was over 100 µM in each case. The EC50 in data set [3] (MTT, peritoneal macrophages of C57bl/6j mice) is over 100 µM.

In turn, `CC(=O)N1CCC(NC(=O)NC23CC4CC(CC(C4)C2)C3)CC1` [compound 1153, reference compound] showed a solubility in data set [6] of 970 ± 60 µM (≈ 310 µg/mL).

With `COc1cccc2c1C(=O)c1c(O)c3c(c(O)c1C2=O)C[C@@](O)(C(=O)CO)C[C@@H]3O[C@H]1C[C@H](N)[C@H](O)[C@H](C)O1` [doxorubicin, reference compound], in [5] (MRC5, MTT, 72 h), the EC50 stood at 2.41 ± 0.15 µM.
